As a reminder, the IC50 is the concentration that inhibits the measured activity by half.

The text below walks through data of the Kinase Knowledgebase extract (Sharma et al. 2016).

The target of test [1] is PIK3CA (human) (UniProt P42336). Description: Cell-Based Assay.
The target of a further test is PIK3CG (human) (UniProt P48736). Description: Enzyme Assay.
A further test addresses PIK3CD (Human) (UniProt O00329). Description: Enzyme Assay.
The target in test [2] is PIK3CA (human) (UniProt P42336). As to the kind of experiment: Enzyme Assay.

Chain of PIK3CD (Human) (O00329 whole entry, looked up): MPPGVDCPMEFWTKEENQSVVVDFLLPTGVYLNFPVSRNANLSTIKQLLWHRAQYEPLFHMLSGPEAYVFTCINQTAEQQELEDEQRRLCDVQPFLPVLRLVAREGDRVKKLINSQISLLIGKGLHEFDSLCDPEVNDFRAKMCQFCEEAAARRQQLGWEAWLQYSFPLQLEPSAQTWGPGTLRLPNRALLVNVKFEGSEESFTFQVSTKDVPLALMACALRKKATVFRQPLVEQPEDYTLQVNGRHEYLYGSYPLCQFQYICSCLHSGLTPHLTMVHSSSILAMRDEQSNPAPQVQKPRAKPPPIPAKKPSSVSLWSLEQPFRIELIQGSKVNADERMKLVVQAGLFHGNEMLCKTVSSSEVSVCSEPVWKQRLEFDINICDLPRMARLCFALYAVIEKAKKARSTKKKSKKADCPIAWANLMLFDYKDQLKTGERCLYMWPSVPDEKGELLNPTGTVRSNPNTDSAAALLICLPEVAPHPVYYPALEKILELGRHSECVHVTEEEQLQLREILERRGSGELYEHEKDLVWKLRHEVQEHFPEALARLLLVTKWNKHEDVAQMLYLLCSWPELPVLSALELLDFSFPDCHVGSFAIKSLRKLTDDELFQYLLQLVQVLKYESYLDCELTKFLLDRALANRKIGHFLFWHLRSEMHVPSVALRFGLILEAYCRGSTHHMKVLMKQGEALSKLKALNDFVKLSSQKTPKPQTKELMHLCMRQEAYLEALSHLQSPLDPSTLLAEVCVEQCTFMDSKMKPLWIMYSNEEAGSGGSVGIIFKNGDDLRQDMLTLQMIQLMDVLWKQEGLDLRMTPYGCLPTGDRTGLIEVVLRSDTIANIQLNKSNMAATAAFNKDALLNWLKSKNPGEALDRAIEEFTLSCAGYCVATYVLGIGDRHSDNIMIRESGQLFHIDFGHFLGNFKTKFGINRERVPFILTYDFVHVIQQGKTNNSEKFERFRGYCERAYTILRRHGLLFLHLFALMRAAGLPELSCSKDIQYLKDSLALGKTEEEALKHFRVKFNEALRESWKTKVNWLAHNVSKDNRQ
Chain of PIK3CA (human) (P42336 whole entry, looked up): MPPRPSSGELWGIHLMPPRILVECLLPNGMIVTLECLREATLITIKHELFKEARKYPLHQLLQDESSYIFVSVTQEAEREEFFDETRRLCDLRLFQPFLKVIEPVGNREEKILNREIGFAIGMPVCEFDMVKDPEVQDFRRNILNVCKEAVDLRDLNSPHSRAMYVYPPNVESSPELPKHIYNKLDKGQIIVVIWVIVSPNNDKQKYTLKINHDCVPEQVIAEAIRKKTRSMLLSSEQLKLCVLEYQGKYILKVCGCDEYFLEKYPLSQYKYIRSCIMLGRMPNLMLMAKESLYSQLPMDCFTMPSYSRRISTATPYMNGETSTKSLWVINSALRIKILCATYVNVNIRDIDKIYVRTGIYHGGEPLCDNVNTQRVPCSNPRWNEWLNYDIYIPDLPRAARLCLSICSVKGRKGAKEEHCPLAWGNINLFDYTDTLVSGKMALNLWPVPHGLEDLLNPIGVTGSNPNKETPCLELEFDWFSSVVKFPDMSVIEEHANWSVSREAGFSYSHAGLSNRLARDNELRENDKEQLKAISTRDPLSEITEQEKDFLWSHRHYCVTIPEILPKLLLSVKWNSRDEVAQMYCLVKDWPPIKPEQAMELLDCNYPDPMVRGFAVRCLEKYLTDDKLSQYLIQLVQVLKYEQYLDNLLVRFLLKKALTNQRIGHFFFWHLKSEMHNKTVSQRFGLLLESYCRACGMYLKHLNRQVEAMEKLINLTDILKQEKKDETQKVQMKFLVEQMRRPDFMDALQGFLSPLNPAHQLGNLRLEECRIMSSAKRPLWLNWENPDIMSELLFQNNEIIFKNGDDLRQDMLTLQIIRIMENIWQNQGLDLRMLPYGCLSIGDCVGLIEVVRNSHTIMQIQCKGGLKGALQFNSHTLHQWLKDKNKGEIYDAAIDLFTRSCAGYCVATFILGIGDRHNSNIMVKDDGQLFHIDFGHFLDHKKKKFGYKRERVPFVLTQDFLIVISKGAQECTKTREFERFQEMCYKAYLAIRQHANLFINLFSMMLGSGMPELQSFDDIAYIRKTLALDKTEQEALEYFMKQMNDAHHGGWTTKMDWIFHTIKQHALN
Chain of PIK3CG (human) (P48736 whole entry, looked up): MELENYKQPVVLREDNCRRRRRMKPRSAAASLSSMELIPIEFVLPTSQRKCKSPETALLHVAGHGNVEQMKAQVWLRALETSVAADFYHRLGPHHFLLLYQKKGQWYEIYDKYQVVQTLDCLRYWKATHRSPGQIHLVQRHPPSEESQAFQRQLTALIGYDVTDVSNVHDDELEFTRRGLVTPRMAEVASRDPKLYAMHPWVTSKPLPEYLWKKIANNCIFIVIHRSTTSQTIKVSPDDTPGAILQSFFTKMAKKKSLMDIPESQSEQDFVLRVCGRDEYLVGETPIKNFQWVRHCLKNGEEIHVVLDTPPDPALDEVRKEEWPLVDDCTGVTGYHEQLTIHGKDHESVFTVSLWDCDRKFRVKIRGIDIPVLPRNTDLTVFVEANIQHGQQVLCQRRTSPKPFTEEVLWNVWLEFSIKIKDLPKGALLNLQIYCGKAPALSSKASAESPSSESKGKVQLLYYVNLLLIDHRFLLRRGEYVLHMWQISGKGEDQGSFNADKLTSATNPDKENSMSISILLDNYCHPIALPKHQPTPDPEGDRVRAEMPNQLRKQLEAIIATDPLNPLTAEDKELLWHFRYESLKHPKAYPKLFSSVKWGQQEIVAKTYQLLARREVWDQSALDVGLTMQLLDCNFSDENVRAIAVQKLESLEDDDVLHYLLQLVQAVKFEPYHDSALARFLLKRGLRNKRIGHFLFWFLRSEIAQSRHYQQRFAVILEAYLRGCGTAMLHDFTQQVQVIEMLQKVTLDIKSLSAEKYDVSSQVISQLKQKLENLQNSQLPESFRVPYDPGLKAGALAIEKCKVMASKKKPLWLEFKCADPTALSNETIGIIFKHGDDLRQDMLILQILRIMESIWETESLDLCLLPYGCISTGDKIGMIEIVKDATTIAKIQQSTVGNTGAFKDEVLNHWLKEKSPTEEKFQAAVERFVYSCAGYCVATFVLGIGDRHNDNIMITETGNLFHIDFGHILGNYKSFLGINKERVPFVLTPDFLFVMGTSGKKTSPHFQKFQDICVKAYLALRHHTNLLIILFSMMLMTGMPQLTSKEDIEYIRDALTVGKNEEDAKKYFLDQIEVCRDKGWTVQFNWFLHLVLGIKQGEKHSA

`CC1(C)CN(C2CN(C(=O)c3cnc4ccc(-c5ccc6oc(N)nc6c5)cn34)C2)CCN1`: the half-inhibitory concentration (IC50) against PIK3CA (human) [1] (pc3) is 100 to 1000 nM; on PIK3CG (human) it was 100 to 1000 nM; on PIK3CD (Human), less than 100 nM; at PIK3CA (human) [2] it was less than 100 nM.

Turning to `Nc1nc2cc(-c3ccc4ncc(C(=O)N[C@H]5CC[C@H](O)CC5)n4c3)ccc2o1`, the 50% inhibitory concentration (IC50) against PIK3CG (human) is less than 100 nM.

Molecule `COc1ncc(-c2ccc3ncn(C4CCN(C)CC4)c(=O)c3c2)cc1NS(C)(=O)=O` returned a half-maximal inhibitory concentration (IC50) on PIK3CD (Human) of less than 100 nM.

`Nc1nc2cc(-c3ccc4ncc(C(=O)N5CCC(O)C5)n4c3)ccc2o1` (stereo not given): the 50% inhibitory concentration (IC50) at PIK3CA (human) [1] (t47d) and on PIK3CG (human) was 100 to 1000 nM each time.

Take `Nc1nc2cc(-c3ccc4nccc(-c5ccncc5)c4c3)ccc2o1`: the IC50 was 100 to 1000 nM at PIK3CA (human) [1] (pc3); 100 to 1000 nM on PIK3CA (human) [1] (t47d); less than 100 nM against PIK3CG (human); less than 100 nM against PIK3CD (Human); less than 100 nM against PIK3CA (human) [2].

With `Nc1nc2cc(-c3ccc4ncc(N[C@H]5CC[C@H](O)CC5)nc4c3)ccc2o1`, the IC50 against PIK3CG (human), on PIK3CD (Human) and against PIK3CA (human) [2] was less than 100 nM in each case.

For the molecule `Nc1nc2cc(-c3ccc4ncc(C(=O)N5C6CCC5COC6)n4c3)ccc2o1`, the concentration for half-maximal inhibition (IC50) against PIK3CA (human) [1] (pc3) is 100 to 1000 nM; at PIK3CG (human), less than 100 nM; against PIK3CA (human) [2] it was 100 to 1000 nM.

At PIK3CA (human) [2], `Nc1nc2cccc(-c3ccc4nccc(-c5ccncc5)c4c3)c2s1` had an IC50 of less than 100 nM.

Molecule `C[C@H]1CN(c2cnc3ccc(-c4cccc5c(N)nsc45)cc3n2)CCN1` gave an IC50 at PIK3CG (human) of less than 100 nM.

Consider `COC(=O)N1CCC(N2N=CC3C(N4CCOCC4)=NC(c4ccc5oc(N)nc5c4)=NC32)CC1` (stereo not given), for which the concentration for half-maximal inhibition (IC50) is greater than 10000 nM against PIK3CG (human), greater than 10000 nM at PIK3CD (Human) and 100 to 1000 nM against PIK3CA (human) [2].

In the case of `CS(=O)(=O)N1CCC(n2cnc3ccc(-c4ccc5oc(N)nc5c4)cc3c2=O)CC1`, the IC50 at PIK3CG (human) is greater than 10000 nM; at PIK3CD (Human), greater than 10000 nM; at PIK3CA (human) [2], 100 to 1000 nM.

Take `NC1=NC2C=C(c3ccc4oc(N)nc4c3)C=CC2O1` (stereo not given): the figures for the IC50 against PIK3CG (human) and on PIK3CA (human) [2] were less than 100 nM and 100 to 1000 nM, respectively.

Turning to `CN1CCN(C(=O)c2cnn3ccc(-c4ccc5oc(N)nc5c4)cc23)CC1`, the IC50 at PIK3CD (Human) is greater than 10000 nM; at PIK3CA (human) [2], 100 to 1000 nM.

Consider `Nc1nc2cc(-c3ccc4ncn(-c5ccncc5)c4c3)ccc2o1`, for which the results for the half-maximal inhibitory concentration (IC50) against PIK3CA (human) [1] (pc3), against PIK3CG (human) and against PIK3CA (human) [2] were greater than 10000 nM, 100 to 1000 nM and less than 100 nM, respectively.

The molecule `CC(=O)N1CCC(N(C)c2ncnc3ccc(-c4ccc5oc(N)nc5c4)cc23)CC1` returned an IC50 against PIK3CA (human) [1] (t47d) of 100 to 1000 nM.

In the case of `C[C@@H]1CN(C2CN(C(=O)c3cnc4ccc(-c5ccc6oc(N)nc6c5)cn34)C2)CCN1C`, the IC50 at PIK3CA (human) [1] (pc3) fell in the range of 100 to 1000 nM.

Turning to `CN1CC(C(=O)N2CCC(Nc3ncnc4ccc(-c5ccc6oc(N)nc6c5)cc34)CC2)C1`, the concentration for half-maximal inhibition (IC50) against PIK3CA (human) [1] (t47d) is greater than 10000 nM.

With `Nc1nc2cc(-c3ccc4ncc(-c5cccnc5)cc4n3)ccc2o1`, the IC50 on PIK3CA (human) [1] (mda-mb-361) is greater than 10000 nM.

At PIK3CA (human) [1] (mda-mb-361), `Nc1nc2cc(-c3ccc4ncc(N5CCOCC5)nc4n3)ccc2o1` had an IC50 of 100 to 1000 nM.

`C[C@H]1CN(C(=O)C2CN(c3cnc4ccc(-c5ccc6oc(N)nc6c5)cc4n3)C2)CCN1` gave an IC50 against PIK3CA (human) [1] (t47d) of 100 to 1000 nM.

On PIK3CA (human) [1] (mda-mb-361), `Nc1nc2cc(-c3ccc4ncc(N5CC6CCC(C5)O6)nc4n3)ccc2o1` returned an IC50 of 100 to 1000 nM.

With `NC1=NC2C=C(c3ccc4nc(N)oc4c3)C=CC2O1` (stereo not given), the IC50 was less than 100 nM against PIK3CG (human), 100 to 1000 nM against PIK3CD (Human) and 100 to 1000 nM against PIK3CA (human) [2].

The molecule `CC(=O)N1CCC(Nc2ncnc3ccc(-c4ccc5oc(N)nc5c4)nc23)CC1` displayed an IC50 at PIK3CA (human) [1] (t47d) of 100 to 1000 nM.

On to `CCNC(=O)c1cnc2ccc(-c3ccc4oc(N)nc4c3)cn12`, for which the 50% inhibitory concentration (IC50) against PIK3CA (human) [1] (t47d) is 100 to 1000 nM.

On to `CC1CN(c2cnc3ccc(-c4ccc5oc(N)nc5c4)cc3n2)CCN1` (stereo not given), for which the concentration for half-maximal inhibition (IC50) against PIK3CA (human) [1] (t47d) is greater than 10000 nM.

`Nc1nc2cc(-c3ccc4ncc(N5CCC(N6CCOCC6)CC5)nc4c3)ccc2o1` returned an IC50 against PIK3CA (human) [1] (t47d) of 100 to 1000 nM.

Regarding `Nc1nc2cc(-c3ccc4nnc(C(=O)N5CCOCC5)n4c3)ccc2o1`, the IC50 on PIK3CA (human) [1] (t47d) is greater than 10000 nM.

Take `Nc1nc2cc(-c3ccc4ncc(N5CC6CCC(C5)O6)cc4n3)ccc2o1`: the IC50 against PIK3CA (human) [1] (mda-mb-361) is 100 to 1000 nM.
